Laboratory results from ChEMBL document CHEMBL1146834, “1-Azakenpaullone is a selective inhibitor of glycogen synthase kinase-3 beta” (Bioorg Med Chem Lett, 2004).

How the values were obtained:
[1] = target: Cyclin-dependent kinase 1/cyclin B (Homo sapiens, UniProt P06493); assay: Inhibition of human cyclin-dependent kinase 1-cyclin B; assay type: protein-complex assay
[2] = target: Cyclin-dependent kinase 5/CDK5 activator 1 (Homo sapiens, UniProt Q00535); assay: Inhibition of human Cyclin-dependent kinase 5-p35nck5a; assay type: protein-complex assay
Sequence of Cyclin-dependent kinase 5/CDK5 activator 1 (Q00535 whole entry): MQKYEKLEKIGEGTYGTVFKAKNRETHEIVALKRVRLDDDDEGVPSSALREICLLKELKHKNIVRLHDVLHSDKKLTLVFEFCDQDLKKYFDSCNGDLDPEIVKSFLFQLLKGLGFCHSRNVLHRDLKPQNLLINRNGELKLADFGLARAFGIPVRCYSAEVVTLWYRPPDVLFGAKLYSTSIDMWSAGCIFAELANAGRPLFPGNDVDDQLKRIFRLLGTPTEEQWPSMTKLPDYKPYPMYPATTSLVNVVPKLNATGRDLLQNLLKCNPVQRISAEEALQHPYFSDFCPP
Sequence of Cyclin-dependent kinase 5/CDK5 activator 1 (Q15078 whole entry, further chain): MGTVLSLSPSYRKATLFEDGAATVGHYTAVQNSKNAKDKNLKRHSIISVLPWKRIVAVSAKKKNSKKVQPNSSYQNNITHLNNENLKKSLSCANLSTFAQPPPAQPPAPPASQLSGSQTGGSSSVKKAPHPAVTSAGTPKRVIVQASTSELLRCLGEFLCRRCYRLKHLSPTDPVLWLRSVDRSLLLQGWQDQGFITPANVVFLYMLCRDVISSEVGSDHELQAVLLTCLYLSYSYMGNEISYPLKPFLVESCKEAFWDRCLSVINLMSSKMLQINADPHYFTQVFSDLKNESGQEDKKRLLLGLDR

[3] = target: Glycogen synthase kinase-3 beta (Homo sapiens, UniProt P49841)
Sequence of Glycogen synthase kinase-3 beta (P49841 whole entry): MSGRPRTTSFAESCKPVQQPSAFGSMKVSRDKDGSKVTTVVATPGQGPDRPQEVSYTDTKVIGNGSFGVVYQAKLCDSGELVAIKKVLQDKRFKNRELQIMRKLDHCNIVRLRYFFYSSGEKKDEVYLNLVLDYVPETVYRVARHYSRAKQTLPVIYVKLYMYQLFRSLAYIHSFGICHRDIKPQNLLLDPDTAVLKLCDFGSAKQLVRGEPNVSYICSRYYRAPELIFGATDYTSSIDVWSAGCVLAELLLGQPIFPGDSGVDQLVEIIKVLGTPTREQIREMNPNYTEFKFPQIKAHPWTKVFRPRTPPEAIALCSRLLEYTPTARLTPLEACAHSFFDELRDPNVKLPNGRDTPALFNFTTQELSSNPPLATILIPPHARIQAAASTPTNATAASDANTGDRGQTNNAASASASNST
Description: Inhibition of human glycogen synthase kinase-3 beta

[4] = organism: Homo sapiens; assay: Relative inhibition of human CDK-1 and GSK3-beta

| SMILES | IC50 [1] [µM] | IC50 [2] [µM] | IC50 [3] [µM] | Selectivity index [4] |
| --- | --- | --- | --- | --- |
| O=C1Cc2c([nH]c3ccc(Br)cc23)-c2cccnc2N1 | 8.4 | 12 | 6 | 1.4 |
| NC1=NC(=O)/C(=C2\CCNC(=O)c3[nH]c(Br)cc32)N1 [HYMENIALDISINE] | 0.022 | 0.028 | – | – |
| O=Nc1c(-c2c(O)[nH]c3ccc(I)cc23)[nH]c2ccccc12 | 0.025 | 0.02 | – | – |
| CC(C)c1c(-c2ccc(Cl)cc2)[nH]c2nccnc12 | – | – | – | 1.1 |
| O=C1Cc2c([nH]c3ccc(Br)cc23)-c2ncccc2N1 [AZAKENPAULLONE] | 2 | – | – | – |
